From patent US8063212B2, “Imidazolidinonyl aminopyrimidine compounds for the treatment of cancer” (Eli Lilly and Company, priority 2006, dated 2011)
Like-named read-outs stand apart in the source and are kept apart here.

Legend:
[1] = system: HeLa Cells; assay: pHH3(S10), Mitotic Cells, and DNA Content Assays; type: cell-based; settings: Homo sapiens, 23 hours exposure
Experimental: HeLa Cells from the American Type Culture Collection (ATCC) are plated at 200 cells/well in 96 well […] BIOCOAT™ plates, and are incubated in MEM (Minimum Essential Medium, e.g., GIBCO, catalog #11095) with 10% FBS (Fetal Bovine Serum) in 37° C., 5% CO2 for 24 hours. Cells are treated by adding compound (in 0.25% DMSO) to the medium, dosing at 10 points across the range […] to 0.0098 μM. After 23 hours exposure to the compounds, cells are fixed, for example with the PREFER™ fixative [Anatech LTD., Catalog #414] for 30 min then are permeablized with 0.1% TRITON® X100 in phosphate buffered saline (PBS) solution for 15 min. Cells are washed 3 times with PBS then digested with 50 μg/mL RNAse. Primary antibody, phosphohistone H3 (Upstate Cat#06-570), is added at 1:500 in PBS with 1% bovine serum albumin (BSA) to the cells over night at 4° C. After 3 PBS washes, cells are incubated with Alexa488 labeled secondary antibody (Invitrogen cat #A11008) for 1 hour at room temperature. Again they are washed 3 times with PBS, and then 15 μM propidium iodide (Molecular Probes cat #P3566) is added for 30 min to stain nuclei. Fluorescence Plates are scanned with ACUMEN EXPLORER™ [Laser-scanning fluorescence microplate cytometer (comprising of 488 nm argon ion laser excitation and multiple photomultiplier tube detection), manufactured by TTP LABTECH LTD] to measure phosphohistone H3, DNA content and mitotic cells as measured by DNA condensation. Image analysis are based on cellular fluorescent signals for identifying cells in different subpopulations. pHH3(S10) positive cells are identified by mean intensity at 500-530 nm above the threshold. Total intensity at 655-705 nm from propidium iodide/DNA is used to identify individual cells (cells with DNA content from 2N to 4N) and subpopulations in cell cycle (2N cells, 4N cells). Peak intensity at 575-640 nm is used to identify DNA condensation that is used as the marker to identify mitotic cells among 4N cells. […] The ECso is determined by curve fitting to a four parameter logistic for each output using ACTIVITY BASE™.

[2] = system: HCT116 cells; assay: Antiproliferative Assay; type: cell-based; settings: Homo sapiens, HCT-116, 72 hours, Alamar Blue, n=3, MSR 3.1
Experimental: The effects of compounds on cell proliferation can be determined using cells and cell proliferation methods well-known in the art (Robert C. Squatrito et al., Gynecological Oncology, 58, 101-105, (1995)). For example, HCT116 cells, which may be obtained from the American Type Culture Collection, may be seeded at ˜2000 cells/well in 96-well plates and allowed to attach overnight in a humidified CO2 incubator at 37° C. Following the 20-24 hour incubation, half-log serially diluted compounds are added and the plates are returned to the incubator. After an appropriate length of exposure (e.g., 72 hours), cell proliferation is estimated using well-known methods. In one method, 10 μL of a tetrazolium salt, such as Alamar Blue™ is added to the cell plates. After an appropriate exposure to the dye, fluorescence (530 nm excitation, 580 nm emission) is determined. The resulting IC50 has an MSR of 3.1.

[3] = molecular target: T1, Plk1 (Homo sapiens, UniProt P53350); assay: Plk1 Inhibition Assay; type: biochemical; settings: Absolute IC50, 5.0 μM ATP, GST-Cdc25c (1-206) substrate, 60 min; MSR 3.6
T1 construct: made in house; host or cells: baculovirus-infected Sf9 cells, treated with okadaic acid before harvest; the substrate was made in E. coli BL21
T1 sequence (P53350 whole entry): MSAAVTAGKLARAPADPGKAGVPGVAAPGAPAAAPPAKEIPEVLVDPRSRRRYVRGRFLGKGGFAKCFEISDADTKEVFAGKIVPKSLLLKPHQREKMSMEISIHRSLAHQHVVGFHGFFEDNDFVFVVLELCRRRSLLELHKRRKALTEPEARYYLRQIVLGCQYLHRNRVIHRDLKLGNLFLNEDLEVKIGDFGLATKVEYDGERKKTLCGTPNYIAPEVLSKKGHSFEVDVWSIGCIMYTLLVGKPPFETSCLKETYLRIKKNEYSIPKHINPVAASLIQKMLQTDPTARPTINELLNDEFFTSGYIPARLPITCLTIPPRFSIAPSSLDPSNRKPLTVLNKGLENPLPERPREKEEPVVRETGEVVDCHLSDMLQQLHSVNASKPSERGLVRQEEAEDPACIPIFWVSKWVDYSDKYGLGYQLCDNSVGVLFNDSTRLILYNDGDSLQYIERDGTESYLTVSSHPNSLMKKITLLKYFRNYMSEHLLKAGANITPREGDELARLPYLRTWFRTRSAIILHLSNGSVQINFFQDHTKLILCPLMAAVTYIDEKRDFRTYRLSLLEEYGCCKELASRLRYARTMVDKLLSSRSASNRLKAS
Text: Human Plk1 cDNA, which may be obtained from a number of sources, such as Incyte (accession number: NM_005030), may be directly linked at one of its termini with a polynucleotide sequence expressing a His6 tag, such as the C-terminal FLAG-His6 tag, and inserted into an appropriate expression vector, such as a pFastBac™ vector (Invitrogen) and transfected into an appropriate system, such as baculovirus similar to what has been reported by Yue-Wei Qian, et al., Science, 282, 1701 (1998) for xPlkk1. If a viral expression system is used, then the virus (e.g., baculovirus bearing a Plk1-Flag-His6 tag polynucleotide construct) is infected into a culture of a suitable host cell, such as Sf9 cells. […]
Plk1 kinase reactions contain Plk1-Flag-His6 tag fusion enzyme (0.2 ng/μL) in a buffer containing 50 mM HEPES, pH 7.3, 1.0 mM dithiothreitol, 5.0 μM ATP, 10 mM MgCl2, 0.01% TRITON® X-100, 0.4 μCi ^33P-ATP, and 0.06 μg/μL GST-Cdc25c (1-206) peptide. […] Wells are dried before addition of 40 μL of MicroScint™ 20 (Packard) and then counted on a Wallac MICROBETA® Jet. The percentage inhibition values from the 10-point concentration response data are subsequently analyzed, for example, using ACTIVITY BASE™ software (IDBS), using a 4-parameter logistic equation. Absolute IC50 values are calculated from the resulting curve fit.

[4] = in man; cited from earlier work
[5] = system: A549 murine xenografts; settings: A549 murine xenograft; cited from earlier work
[6] = system: HCT116 murine xenografts; settings: HCT116 murine xenograft; cited from earlier work
[7] = system: NClH460 murine xenografts; settings: NClH460 murine xenograft; cited from earlier work

Row | Structure (SMILES) | EC50 ([1]; n=1, MSR 2.5, read-out: mitotic EC50) [µM] | EC50 ([1]; n=1, MSR 2.6, read-out: pHH3(s10) EC50) [µM] | EC50 ([1]; n=2, MSR 2.4, read-out: DNA content EC50) [µM] | IC50 [2] [µM] | IC50 [3] [µM] | clearance (CL) [4] [mL/min] | dose limiting toxicity [4] | activity in preclinical model [5] | activity in preclinical model [6] | activity in preclinical model [7]
1 | CN(C)Cc1cnc(F)cc1-c1cccc2cc(-c3ccnc(NCCN4CCNC4=O)n3)sc12 [Example 4, 1-(2-{4-[7-(5-((Dimethylamino)methyl)-2-fluoropyridin-4-yl)benzo[b]thiophen-2-yl]pyrimidin-2-ylamino}ethyl)imidazolidin-2-one] | 0.022 | 0.024 | 0.035 | 0.044 | ~0.025 |  |  |  |  | 
2 | CC[C@@H]1C(=O)N(C)c2cnc(Nc3ccc(C(=O)NC4CCN(C)CC4)cc3OC)nc2N1C1CCCC1 [BI-2536] |  |  |  |  |  | > 1000 | dose limited by myelosupression | demonstrated activity | demonstrated activity | demonstrated activity
